Laboratory results reported in patent publication US9388164B2, “Methods of using pyruvate kinase activators” (AGIOS PHARMACEUTICALS, INC, priority 2011, dated 2016).

Columns and labels:
Format in all cases: biochemical
PKR wt = PKR wt (Homo sapiens, UniProt P30613); assay: PKR WT Single Point Percent Activation Assay; conditions: compound at 1 μM
Procedure: PKR WT Single Point Percent Activation Assay
(§1) A compound described herein was diluted with DMSO and tested at 1 μM concentration. The enzyme was diluted in 1× Buffer: (100 mM KCl, 50 mM Tris 7.5, 5 mM MgCl2, 1 mM DTT, 0.03% BSA). 2 μL of compound solution was first added into wells, and then 180 μL of enzyme solution was added. Assays were assembled except for ADP, and plates were stored for 60 minutes at RT. 20 μL ADP was added to start the assay and assay output was evaluated using OD340 at SpectraMax. The assay was run at room temperature.
PKR wt (100 ng/well), Tris pH 7.5 (50 mM), KCl (100 mM), MgCl2 (5 mM), ADP (0.48 mM), PEP (0.15 mM), NADH (180 μM), LDH (0.5 units, Sigma 59023), DTT (1 mM) and BSA (0.03%).

PKR T384W [1] = molecular target: T1, PKR T384W (Homo sapiens, UniProt P30613); assay: PKR T384W Single Point Percent Activation Assay; conditions: compound at 1 μM
Procedure: PKR T384W Single Point Percent Activation Assay
as §1, with “180 μL enzyme solution” for “180 μL of enzyme solution”
PKR T384W soluble (300 ng/well), Tris pH 7.5 (50 mM), KCl (100 mM), MgCl2 (5 mM), ADP (0.08 mM), PEP (0.23 mM), NADH (180 μM), LDH (0.5 units, Sigma 59023), DTT (1 mM) and BSA (0.03%).

PKR R532W [2] = molecular target: T2, PKR R532W (Homo sapiens, UniProt P30613, R532W); assay: PKR R532W Single Point Percent Activation Assay; conditions: compound at 1 μM; for activation at 1 µM: read-out: % Act. R532W
Procedure: PKR R532W Single Point Percent Activation Assay
as §1
PKR R532W (100 ng/well), Tris pH 7.5 (50 mM), KCl (100 mM), MgCl2 (5 mM), ADP (0.36 mM), PEP (0.1 mM), NADH (180 μM), LDH (0.5 units, Sigma 59023), DTT (1 mM) and BSA (0.03%).

wild type PKR = wild type PKR (Homo sapiens, UniProt P30613); assay: PKR assay, AC50 (wild type); conditions: read-out: PKR WT AC50
Procedure: (§2) • PKR or PKR mutant enzyme solution was diluted in assay buffer. • 2 μL of test compound was added into wells first, and then 180 μL reaction mix was added. • Reactions mixture with test compound was assembled except for ADP, and plates were stored for 60 minutes at room temperature. • 20 uL ADP was added to start reaction at room temperature and reaction progress was measured as changes in absorbance at 340 nm wavelength at room temperature.
(§3) Test Compound Preparation: • Test compound stock was made at 100× concentration in 100% DMSO (10 mM) • 1 to 3 dilutions were made for 11 points (i.e. 50 μl of first concentration added to 100 μl 100% DMSO to yield 3.33 mM, 50 μl of this added to 100 μl DMSO to yield 1.11 mM, and so forth) • 1 to 100 dilution into assay (2 μl in 200 μl) yielded starting concentration of 100 μM, decreasing 3 fold for 11 points.

PKR R510Q [3] = molecular target: T3, PKR R510Q (Homo sapiens, UniProt P30613, R510Q); assay: PKR R510Q Single Point Percent Activation Assay; conditions: compound at 1 μM; for activation at 1 µM: read-out: % Act. R510Q
Procedure: PKR R510Q Single Point Percent Activation Assay
as §1
PKR R510Q (40 ng/well), Tris pH 7.5 (50 mM), KCl (100 mM), MgCl2 (5 mM), ADP (0.2 mM), PEP (0.11 mM), NADH (180 μM), LDH (0.5 units, Sigma 59023), DTT (1 mM) and BSA (0.03%).

PKR R532W [4] = molecular target: T2, PKR R532W; assay: PKR Mutant Assay, AC50 (R532W)
Procedure: as §2, §3

PKR T384W [5] = molecular target: T1, PKR T384W; assay: PKR Mutant Assay, AC50 (T384W)
Procedure: as §2, §3

PKR R510Q [6] = molecular target: T3, PKR R510Q; assay: PKR Mutant Assay, AC50 (R510Q)
Procedure: as §2, §3

PKR G364D = PKR G364D (Homo sapiens, UniProt P30613, G364D); assay: PKR Mutant Assay, AC50 (G364D)
Procedure: as §2, §3

PKR R479H = PKR R479H (Homo sapiens, UniProt P30613, R479H); assay: PKR Mutant Assay, AC50 (R479H)
Procedure: as §2, §3

Sequence of PKR wt (P30613 whole entry): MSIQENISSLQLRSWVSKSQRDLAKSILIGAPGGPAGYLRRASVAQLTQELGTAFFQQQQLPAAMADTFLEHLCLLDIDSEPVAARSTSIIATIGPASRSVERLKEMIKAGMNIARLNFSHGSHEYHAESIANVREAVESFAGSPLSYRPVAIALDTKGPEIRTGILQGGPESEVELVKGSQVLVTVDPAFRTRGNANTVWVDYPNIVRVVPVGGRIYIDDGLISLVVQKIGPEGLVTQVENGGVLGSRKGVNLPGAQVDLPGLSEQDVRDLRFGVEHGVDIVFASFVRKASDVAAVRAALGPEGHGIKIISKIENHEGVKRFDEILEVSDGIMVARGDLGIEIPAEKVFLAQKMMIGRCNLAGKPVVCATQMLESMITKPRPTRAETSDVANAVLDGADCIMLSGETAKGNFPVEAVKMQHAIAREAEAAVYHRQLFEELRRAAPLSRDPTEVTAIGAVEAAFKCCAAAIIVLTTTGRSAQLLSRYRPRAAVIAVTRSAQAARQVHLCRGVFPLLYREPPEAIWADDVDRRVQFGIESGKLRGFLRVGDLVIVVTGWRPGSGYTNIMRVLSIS
Sequence of wild type PKR (P30613 whole entry): as above
T3 sequence (P30613 whole entry R510Q): as the sequence (P30613 whole entry) above, with R510Q counted along it
T1 sequence (P30613 whole entry T384M): as the sequence (P30613 whole entry) above, with T384M counted along it
T2 sequence (P30613 whole entry R532W): as the sequence (P30613 whole entry) above, with R532W counted along it
Sequence of PKR G364D (P30613 whole entry G364D): as the sequence (P30613 whole entry) above, with G364D counted along it
Sequence of PKR R479H (P30613 whole entry R479H): as the sequence (P30613 whole entry) above, with R479H counted along it

| SMILES | % Act. T384W (PKR T384W [1]) | AC50 (wild type PKR) [nM] | AC50 (PKR R532W [4]) [nM] | AC50 (PKR T384W [5]) [nM] | AC50 (PKR R510Q [6]) [nM] | further results |
| --- | --- | --- | --- | --- | --- | --- |
| Cc1cc(C(=O)N2CC(Oc3ccccc3)C2)ccc1NS(=O)(=O)c1cccc2cccnc12 [drawing 10] | A (a % activation at 1 μM of from 1 to 100) | < 100 | – | – | – | activation at 1 µM (PKR wt): 1 to 100%; activation at 1 µM (PKR R532W [2]): 1 to 100%; activation at 1 µM (PKR R510Q [3]): 101 to 500% |
| O=C(c1ccc(NS(=O)(=O)c2cccc3cccnc23)cc1)N1CC(OCc2ccccc2)C1 [drawing 12] | B (a % activation at 1 μM of from 101 to 500) | 101 to 500 | – | – | – | activation at 1 µM (PKR wt): 101 to 500%; activation at 1 µM (PKR R532W [2]): 101 to 500%; activation at 1 µM (PKR R510Q [3]): 101 to 500% |
| O=C(NC1CN(C(=O)c2ccc(NS(=O)(=O)c3cccc4cccnc34)cc2)C1)c1ccccn1 [drawing 15] | B (a % activation at 1 μM of from 101 to 500) | > 500 | – | – | – | Act. % WT (PKR wt): B (a % activation at 1 μM of from 101 to 500); % Act. R532W (PKR R532W [2]): B (a % activation at 1 μM of from 101 to 500); % Act. R510Q (PKR R510Q [3]): B (a % activation at 1 μM of from 101 to 500) |
| O=C(c1ccc(NS(=O)(=O)c2cccc3cccnc23)c(F)c1)N1CC(Nc2ccccc2)C1 [drawing 22] | B (a % activation at 1 μM of from 101 to 500) | > 500 | – | – | – | activation at 1 µM (PKR wt): 101 to 500%; activation at 1 µM (PKR R532W [2]): 101 to 500%; activation at 1 µM (PKR R510Q [3]): 101 to 500% |
| O=C(c1ccc(NS(=O)(=O)c2cccc3cccnc23)cc1)N1CC(O)(c2ccccc2)C1 [drawing 40] | B (a % activation at 1 μM of from 101 to 500) | 101 to 500 | – | – | – | activation at 1 µM (PKR wt): 101 to 500%; activation at 1 µM (PKR R532W [2]): 101 to 500%; activation at 1 µM (PKR R510Q [3]): 101 to 500% |
| COc1ccccc1OC1CN(C(=O)c2ccc(NS(=O)(=O)c3cccc4cccnc34)c(C)c2)C1 [drawing 63] | A (a % activation at 1 μM of from 1 to 100) | < 100 | – | – | – | activation at 1 µM (PKR wt): 101 to 500%; activation at 1 µM (PKR R532W [2]): 101 to 500%; activation at 1 µM (PKR R510Q [3]): 101 to 500% |
| O=C(c1ccc(NS(=O)(=O)c2cccc3cccnc23)cc1)N1CC(Oc2ccccc2)C1 [drawing 70] | – | – | < 100 | 101 to 500 | > 500 | – |
| O=C(c1ccc(NS(=O)(=O)c2cccc3cccnc23)cc1)N1CC(O)(Cc2ccccc2)C1 [drawing 71] | – | – | < 100 | < 100 | 101 to 500 | AC50 (PKR G364D): 101 to 500 nM; AC50 (PKR R479H): < 100 nM |
| Cc1cc(C(=O)N2CC(NC(=O)c3ccccn3)C2)ccc1NS(=O)(=O)c1cccc2cccnc12 [drawing 73] | – | – | 101 to 500 | 101 to 500 | > 500 | – |
| Cc1cc(C(=O)N2CC(Oc3ccccc3)C2)ccc1NS(=O)(=O)c1cccc2cccnc12 [drawing 76] | – | – | < 100 | < 100 | 101 to 500 | – |
| O=C(c1ccc(NS(=O)(=O)c2cccc3cccnc23)cc1)N1CC(OCc2ccccc2)C1 [drawing 78] | – | – | 101 to 500 | 101 to 500 | – | – |
| O=C(NC1CN(C(=O)c2ccc(NS(=O)(=O)c3cccc4cccnc34)cc2)C1)c1ccccn1 [drawing 81] | – | – | > 500 | > 500 | – | – |
| O=C(c1ccc(NS(=O)(=O)c2cccc3cccnc23)c(F)c1)N1CC(Nc2ccccc2)C1 [drawing 88] | – | – | > 500 | > 500 | > 500 | – |
| O=C(c1ccc(NS(=O)(=O)c2cccc3cccnc23)cc1)N1CC(O)(c2ccccc2)C1 [drawing 106] | – | – | 101 to 500 | 101 to 500 | > 500 | AC50 (PKR G364D): > 500 nM; AC50 (PKR R479H): > 500 nM |
| Cc1cc(C(=O)N2CC(Nc3ccccn3)C2)ccc1NS(=O)(=O)c1cccc2cccnc12 [drawing 121] | – | – | – | – | 101 to 500 | – |
| COc1ccccc1OC1CN(C(=O)c2ccc(NS(=O)(=O)c3cccc4cccnc34)c(C)c2)C1 [drawing 129] | – | – | < 100 | < 100 | > 500 | – |
| O=C(Nc1ccccn1)OC1CN(C(=O)c2ccc(NS(=O)(=O)c3cccc4cccnc34)cc2)C1 [drawing 131] | – | – | – | – | > 500 | – |
